For one assay, the system named is A2780. As to the kind of experiment: Antiproliferative activity against human A2780 cells incubated for 24 hrs followed by incubating in drug-free medium for 48 hrs and measured by SRB assay. The format is functional, cell-based. Background: In SRB staining, fixed cells bind dye roughly in proportion to their protein.
The subject of another assay is MDA-MB-436. As to the kind of experiment: Antiproliferative activity against human MDA-MB-436 cells incubated for 24 hrs followed by incubating in drug-free medium for 48 hrs and measured by SRB assay. The assay is classed as functional, cell-based.
The next assay deals with Z-138. The assay is described as follows: Antiproliferative activity against human Z138 cells incubated for 24 hrs followed by incubating in drug-free medium for 48 hrs and measured by SRB assay. The assay is classed as functional, cell-based.
Assay [1] is described as follows: Antiproliferative activity against human U-87 MG cells incubated for 24 hrs followed by incubating in drug-free medium for 48 hrs and measured by SRB assay. The assay is classed as functional, cell-based, U-87MG ATCC.
The next assay deals with T1, Histone deacetylase 11 (Homo sapiens, UniProt Q96DB2).
T1 sequence (Q96DB2 whole entry): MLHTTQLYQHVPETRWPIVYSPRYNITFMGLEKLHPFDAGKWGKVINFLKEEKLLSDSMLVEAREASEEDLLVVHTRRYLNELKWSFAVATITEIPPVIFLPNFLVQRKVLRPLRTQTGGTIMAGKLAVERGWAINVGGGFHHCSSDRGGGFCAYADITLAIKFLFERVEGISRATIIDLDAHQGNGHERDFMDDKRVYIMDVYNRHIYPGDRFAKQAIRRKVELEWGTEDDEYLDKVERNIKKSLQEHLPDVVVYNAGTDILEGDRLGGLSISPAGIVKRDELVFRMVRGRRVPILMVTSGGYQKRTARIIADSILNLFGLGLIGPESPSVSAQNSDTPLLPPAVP
The assay is described as follows: Inhibition of HDAC11 (unknown origin) using fluorogenic peptide 382 RHKK(Ac)AM as substrate and measured by fluorescence assay.

A short description of assay [2]: Resistance index, ratio of IC50 for human NCI-H460 cells to IC50 for H460-R9A cells. The format is functional.
Assay [3] is described as follows: Antiproliferative activity against human H460-R9A cells incubated for 24 hrs followed by incubating in drug-free medium for 48 hrs and measured by SRB assay. The format is functional, cell-based.
The nature of assay [4]: Antiproliferative activity against human MM487 cells incubated for 24 hrs followed by incubating in drug-free medium for 48 hrs and measured by SRB assay. The assay is classed as functional, cell-based.
A short description of assay [5]: Antiproliferative activity against multi-drug resistant human A2780-DX cells incubated for 24 hrs followed by incubating in drug-free medium for 48 hrs and measured by SRB assay. The assay is classed as functional, cell-based.
Assay [6] can be described thus: Resistance index, ratio of IC50 for human A2780 cells to IC50 for A2780-DX cells. The format is functional.
A further assay deals with U2932. The assay is described as follows: Antiproliferative activity against human U2932 cells incubated for 24 hrs followed by incubating in drug-free medium for 48 hrs and measured by SRB assay. The format is functional, cell-based.
A further assay deals with THP-1. The assay is described as follows: Antiproliferative activity against human THP-1 cells incubated for 24 hrs followed by incubating in drug-free medium for 48 hrs and measured by SRB assay. The assay is classed as functional, cell-based.
Another assay concerns NCI-H460. As to the kind of experiment: Antiproliferative activity against human NCI-H460 cells incubated for 24 hrs followed by incubating in drug-free medium for 48 hrs and measured by SRB assay. The assay is classed as functional, cell-based.
For the next assay, the system named is L-428. As to the kind of experiment: Antiproliferative activity against human L-428 cells incubated for 24 hrs followed by incubating in drug-free medium for 48 hrs and measured by SRB assay. The assay is classed as functional, cell-based.
The target in assay [7] is T2, DNA polymerase alpha catalytic subunit (Homo sapiens) (UniProt P09884).
T2 sequence (whole entry): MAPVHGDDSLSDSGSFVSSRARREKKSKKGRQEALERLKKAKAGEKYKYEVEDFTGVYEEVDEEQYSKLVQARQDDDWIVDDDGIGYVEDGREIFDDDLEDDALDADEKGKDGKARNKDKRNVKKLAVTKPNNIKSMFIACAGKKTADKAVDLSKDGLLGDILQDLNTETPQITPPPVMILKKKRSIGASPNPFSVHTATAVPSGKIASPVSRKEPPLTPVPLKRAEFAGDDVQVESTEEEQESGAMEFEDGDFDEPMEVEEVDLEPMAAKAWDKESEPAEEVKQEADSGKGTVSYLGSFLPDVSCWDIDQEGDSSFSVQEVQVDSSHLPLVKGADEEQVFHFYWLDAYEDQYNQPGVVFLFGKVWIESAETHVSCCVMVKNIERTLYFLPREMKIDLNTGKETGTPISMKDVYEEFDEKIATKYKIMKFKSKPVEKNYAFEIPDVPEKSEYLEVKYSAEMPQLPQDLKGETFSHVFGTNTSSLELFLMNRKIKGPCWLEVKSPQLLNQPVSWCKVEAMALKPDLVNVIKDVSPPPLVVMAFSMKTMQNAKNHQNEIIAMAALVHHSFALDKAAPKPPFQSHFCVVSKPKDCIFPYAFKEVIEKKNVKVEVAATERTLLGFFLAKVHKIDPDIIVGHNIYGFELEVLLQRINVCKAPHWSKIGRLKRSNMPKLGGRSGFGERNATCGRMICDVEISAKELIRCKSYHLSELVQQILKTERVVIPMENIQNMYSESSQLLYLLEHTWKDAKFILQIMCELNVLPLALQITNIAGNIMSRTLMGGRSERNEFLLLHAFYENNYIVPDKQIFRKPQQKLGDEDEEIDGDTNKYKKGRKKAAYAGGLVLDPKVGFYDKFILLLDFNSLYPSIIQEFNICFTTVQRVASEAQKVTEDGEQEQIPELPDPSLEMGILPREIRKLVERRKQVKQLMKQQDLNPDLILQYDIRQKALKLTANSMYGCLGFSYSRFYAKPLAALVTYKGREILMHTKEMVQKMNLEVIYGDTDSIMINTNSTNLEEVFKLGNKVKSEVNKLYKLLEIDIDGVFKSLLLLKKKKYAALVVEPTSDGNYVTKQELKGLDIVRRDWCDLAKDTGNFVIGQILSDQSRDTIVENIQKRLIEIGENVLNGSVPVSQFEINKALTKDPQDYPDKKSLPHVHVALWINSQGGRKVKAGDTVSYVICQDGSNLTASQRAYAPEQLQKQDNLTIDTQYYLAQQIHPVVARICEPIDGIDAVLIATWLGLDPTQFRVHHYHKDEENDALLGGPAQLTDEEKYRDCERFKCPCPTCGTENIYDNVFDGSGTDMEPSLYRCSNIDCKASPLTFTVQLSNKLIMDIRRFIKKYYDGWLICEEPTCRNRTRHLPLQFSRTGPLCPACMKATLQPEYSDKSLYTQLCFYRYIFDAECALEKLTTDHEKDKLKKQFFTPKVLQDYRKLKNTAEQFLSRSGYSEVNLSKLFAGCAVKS
The assay is described as follows: Inhibition of POLA1 in human NCI-H460 cells at 0.1 to 0.4 uM assessed as upregulation of p21 expression and measured by Western blot analysis. The assay is classed as cell-based. The settings on record: dose 0.1-0.4 µM. For orientation: A western blot detects proteins with antibodies after separation by electrophoresis.

The test system of the next assay is NB-4. The assay is described as follows: Antiproliferative activity against human NB-4 cells incubated for 24 hrs followed by incubating in drug-free medium for 48 hrs and measured by SRB assay. The assay is classed as functional, cell-based.
For another assay, the system named is MM473. As to the kind of experiment: Antiproliferative activity against human MM473 cells incubated for 24 hrs followed by incubating in drug-free medium for 48 hrs and measured by SRB assay. The format is functional, cell-based.
The subject of the next assay is Ramos. The assay is described as follows: Antiproliferative activity against human Ramos cells incubated for 24 hrs followed by incubating in drug-free medium for 48 hrs and measured by SRB assay. The format is functional, cell-based.
Assay [8] in a line: Antiproliferative activity against human MM432 cells incubated for 24 hrs followed by incubating in drug-free medium for 48 hrs and measured by SRB assay. The format is functional, cell-based.

SMILES strings stand for the structures. Calls of active or inactive are those of the source. The calls are words filed in the database; no cut-off is given here.

Turning to `CC(Oc1ccc(-c2ccc(C=CC(=O)O)cc2)cc1C12CC3CC(CC(C3)C1)C2)C(=O)NO` (configuration not stated), the 50% inhibitory concentration (IC50) (as a rule, the midpoint of a concentration-inhibition curve) with A2780 was 950 nM; in the assay with MDA-MB-436, 770 nM; in the assay on Z-138, 160 nM; in assay [1], 1000 nM; on Histone deacetylase 11 it was 8230 nM; in assay [3], 2200 nM. For the same compound, the half-maximal inhibitory concentration (IC50) in assay [4] turned out to be 730 nM; in [5] it was 660 nM; with U2932, 770 nM; with THP-1, 520 nM; with NCI-H460 it was 260 nM; with L-428 it was 3200 nM. The concentration for half-maximal inhibition (IC50) in the assay on NB-4 stood at 230 nM; in the assay with MM473 it was 1400 nM; in the assay with Ramos it was 1200 nM; in [8] it was 1400 nM. The “Ratio IC50” value in assay [2] is listed as 8.5; in assay [6] it was 0.7. For the same compound, the inhibition result in assay [7] was “Active”.

Take `O=C(O)C=Cc1ccc(-c2ccc(OCC(=O)NO)c(C34CC5CC(CC(C5)C3)C4)c2)cc1`: the IC50 in the assay with A2780 was 600 nM; in the assay on MDA-MB-436, 640 nM; with Z-138 it was 38 nM; in assay [1], 1100 nM; on Histone deacetylase 11, 6090 nM; in assay [3] it was 2800 nM. The IC50 in [4] came out at 22000 nM; in assay [5], 410 nM; in the assay with U2932 it was 520 nM; in the assay on THP-1, 420 nM; in the assay on NCI-H460 it was 250 nM; with L-428, 2100 nM. Moreover, the half-inhibitory concentration (IC50) in the assay with NB-4 is 180 nM; with MM473, 12000 nM; with Ramos, 710 nM; in assay [8] it was 900 nM. For the same compound, the figures for the “Ratio IC50” value in [2] and in assay [6] were 11.2 and 0.7, respectively. For the same compound, in assay [7], the inhibition entry was “Active”.

As for `O=C(O)C=Cc1ccc(-c2ccc(O)c(C34CC5CC(CC(C5)C3)C4)c2)cc1`, the concentration for half-maximal inhibition (IC50) in the assay with A2780 was 98 nM; in the assay on MDA-MB-436, 550 nM; with Z-138 it was 26 nM; in assay [1] it was 530 nM; against Histone deacetylase 11, above 10000 nM; in assay [3], 8400 nM. In addition, the IC50 in [4] was 100 nM; in [5], 170 nM; in the assay with U2932 it was 77 nM; in the assay with THP-1, 150 nM; in the assay on NCI-H460, 120 nM; in the assay on L-428 it was 450 nM. The half-inhibitory concentration (IC50) in the assay with NB-4 worked out at 100 nM; in the assay on MM473, 600 nM; with Ramos it was 290 nM; in assay [8], 430 nM. For the same compound, the “Ratio IC50” value came out at 70 in [2] and 1.7 in assay [6]. Besides, the inhibition result in [7] was “Active”.

For the origin of these results see ChEMBL document CHEMBL5154648, “Antitumor activity of novel POLA1-HDAC11 dual inhibitors” (Eur J Med Chem, 2022).
